Experimental data taken from patent US20230130403A1, “METHODS OF TREATMENT WITH S1P RECEPTOR MODULATORS” (PRIOTHERA SAS, priority 2021, published 2023).

What was measured:
[1] = test system: peripheral lymphocyte counts; test: Recovery of absolute lymphocyte counts after S1P modulator dosing in healthy volunteers; format: in vivo, human; conditions: single 1 mg FTY720, BAF312 multiple doses for 28 days, single 3 mg KRP203
Experimental: Mocravimod is particularly preferred. […] A measurable parameter that determines maintenance of the mode of action, i.e., sequestering of lymphocytes in secondary lymphoid organs and bone marrow, is reduction of peripheral lymphocyte counts. Recovery of absolute lymphocyte counts to 80% of normal counts after a single 1 mg dose of FTY720, multiple dose applications of BAF312 for 28 days, or a single 3 mg dose of KRP203 was reached after 8, 7 and more than 10 days, respectively.

[2] = test system: S1PR1 versus S1PR3-5; conditions: cited from earlier work
[3] = test system: acute GVHD after allogeneic HSCT; conditions: preclinical; cited from earlier work
[4] = Pharmacokinetics of [14C]KRP203 radioactivity in dogs; format: in vivo, dog; conditions: oral administration
[5] = Pharmacokinetics of [14C]KRP203 radioactivity in rats; format: in vivo, rat
Text: Following intravenous administration of [14C]KRP203, radioactivity was readily distributed to rat and dog tissues with similar volume of distribution (Vss=8.0 L/kg in rat).

[6] = Tissue distribution of [14C]KRP203 radioactivity in Wistar rats; format: in vivo, rat
Text: Highly exposed tissues were liver and to a smaller extent kidney, small intestine, adrenal gland, lungs, spleen and mesenteric lymph nodes.

[7] = Plasma protein binding; format: in vitro ADME; conditions: human plasma
[8] = molecular target: T1, S1P1 (Homo sapiens, UniProt P21453); test: S1P1 internalization; format: cell-based
T1 sequence (P21453 whole entry): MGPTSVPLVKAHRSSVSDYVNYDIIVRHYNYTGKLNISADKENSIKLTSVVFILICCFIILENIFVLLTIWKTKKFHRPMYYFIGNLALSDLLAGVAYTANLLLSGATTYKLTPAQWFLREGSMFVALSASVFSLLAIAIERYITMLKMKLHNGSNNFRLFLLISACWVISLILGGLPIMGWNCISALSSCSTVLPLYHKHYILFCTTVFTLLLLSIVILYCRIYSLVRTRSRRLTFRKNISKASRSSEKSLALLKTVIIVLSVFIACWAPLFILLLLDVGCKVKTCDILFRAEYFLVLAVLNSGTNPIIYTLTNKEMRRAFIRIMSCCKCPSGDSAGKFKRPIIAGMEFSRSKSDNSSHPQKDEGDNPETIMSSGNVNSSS
Text: KRP203 reduces lymphocyte counts in peripheral blood by more than 80%.

[9] = Plasma toxicokinetics in dog
[10] = test system: human cytochrome P450 isoenzymes; test: Inhibition of cytochrome P450 isoenzymes in vitro; format: in vitro ADME
Experimental: (§1) The in vivo ratio of phosphorylated KRP203 to KRP203 in plasma was up to 45 in rat. As the metabolic activities on KRP203 in human blood and hepatocytes were lower than those of other species, the metabolic clearance of KRP203 in man is expected be lower than that in rat and dog. […] KRP230 formed low amounts of covalent drug-protein adducts in human hepatocytes in vitro. Due to the low levels detected ([…] at 3 hours) in-vitro adduct formation is unlikely to be associated with clinical relevant findings at low dose levels (e.g. below 10 mg).
The weak inhibitory effect of ciclosporin on hepatic CYP3A4 is unlikely to relevantly impact the PK of KRP203.

[11] = In vivo plasma ratio of phosphorylated KRP203 to KRP203 in rat
Experimental: as §1

[12] = molecular target: T1, S1P1; test: S1P receptor agonism on S1P1; format: biochemical
Text: (§2) KRP203 (mocravimod) is an immunomodulator that selectively targets sphingosine 1-phosphate (S1P) receptors via its phosphorylated active metabolite. […] The therapeutic effects are believed to be due to the prevention of effector lymphocyte recirculation from lymphatic tissue to susceptible target organs such as the gut, skin or CNS.

[13] = molecular target: CYP3A4 via the human PXR receptor (Homo sapiens, UniProt O75469); test: CYP3A4 induction via PXR; format: in vitro ADME
Chain of CYP3A4 via the human PXR receptor (O75469 whole entry): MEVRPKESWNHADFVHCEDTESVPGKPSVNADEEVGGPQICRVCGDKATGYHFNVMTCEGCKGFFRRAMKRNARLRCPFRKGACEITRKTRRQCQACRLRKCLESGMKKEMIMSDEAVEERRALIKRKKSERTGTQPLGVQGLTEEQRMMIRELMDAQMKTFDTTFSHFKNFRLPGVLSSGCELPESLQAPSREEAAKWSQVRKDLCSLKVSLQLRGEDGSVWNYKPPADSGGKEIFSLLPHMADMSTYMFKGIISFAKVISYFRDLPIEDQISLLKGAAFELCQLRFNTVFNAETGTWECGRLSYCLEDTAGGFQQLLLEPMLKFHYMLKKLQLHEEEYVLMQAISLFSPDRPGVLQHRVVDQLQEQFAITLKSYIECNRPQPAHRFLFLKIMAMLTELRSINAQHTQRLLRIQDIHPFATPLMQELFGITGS

[14] = Plasma toxicokinetics in rat
[15] = molecular target: hS1P3 (Homo sapiens, UniProt Q99500); test: S1P receptor agonism on S1P3; format: biochemical
Chain of hS1P3 (Q99500 whole entry): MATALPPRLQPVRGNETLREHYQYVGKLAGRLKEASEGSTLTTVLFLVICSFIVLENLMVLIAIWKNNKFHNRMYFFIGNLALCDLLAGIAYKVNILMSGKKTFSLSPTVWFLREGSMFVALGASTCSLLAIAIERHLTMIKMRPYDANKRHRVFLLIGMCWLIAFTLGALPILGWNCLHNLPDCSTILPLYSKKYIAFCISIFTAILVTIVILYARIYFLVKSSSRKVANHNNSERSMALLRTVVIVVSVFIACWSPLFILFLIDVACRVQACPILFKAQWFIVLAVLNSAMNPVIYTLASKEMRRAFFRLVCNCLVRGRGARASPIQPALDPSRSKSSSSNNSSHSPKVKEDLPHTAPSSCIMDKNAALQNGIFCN
Text: as §2

[16] = test system: chromosome aberration; test: In vitro genotoxicity: chromosome aberration; format: cell-based
[17] = molecular target: hERG channels (Homo sapiens, UniProt Q12809); test: hERG channel inhibition in vitro; format: biochemical; conditions: up to the highest concentration tested, 3 μM
Chain of hERG channels (Q12809 whole entry): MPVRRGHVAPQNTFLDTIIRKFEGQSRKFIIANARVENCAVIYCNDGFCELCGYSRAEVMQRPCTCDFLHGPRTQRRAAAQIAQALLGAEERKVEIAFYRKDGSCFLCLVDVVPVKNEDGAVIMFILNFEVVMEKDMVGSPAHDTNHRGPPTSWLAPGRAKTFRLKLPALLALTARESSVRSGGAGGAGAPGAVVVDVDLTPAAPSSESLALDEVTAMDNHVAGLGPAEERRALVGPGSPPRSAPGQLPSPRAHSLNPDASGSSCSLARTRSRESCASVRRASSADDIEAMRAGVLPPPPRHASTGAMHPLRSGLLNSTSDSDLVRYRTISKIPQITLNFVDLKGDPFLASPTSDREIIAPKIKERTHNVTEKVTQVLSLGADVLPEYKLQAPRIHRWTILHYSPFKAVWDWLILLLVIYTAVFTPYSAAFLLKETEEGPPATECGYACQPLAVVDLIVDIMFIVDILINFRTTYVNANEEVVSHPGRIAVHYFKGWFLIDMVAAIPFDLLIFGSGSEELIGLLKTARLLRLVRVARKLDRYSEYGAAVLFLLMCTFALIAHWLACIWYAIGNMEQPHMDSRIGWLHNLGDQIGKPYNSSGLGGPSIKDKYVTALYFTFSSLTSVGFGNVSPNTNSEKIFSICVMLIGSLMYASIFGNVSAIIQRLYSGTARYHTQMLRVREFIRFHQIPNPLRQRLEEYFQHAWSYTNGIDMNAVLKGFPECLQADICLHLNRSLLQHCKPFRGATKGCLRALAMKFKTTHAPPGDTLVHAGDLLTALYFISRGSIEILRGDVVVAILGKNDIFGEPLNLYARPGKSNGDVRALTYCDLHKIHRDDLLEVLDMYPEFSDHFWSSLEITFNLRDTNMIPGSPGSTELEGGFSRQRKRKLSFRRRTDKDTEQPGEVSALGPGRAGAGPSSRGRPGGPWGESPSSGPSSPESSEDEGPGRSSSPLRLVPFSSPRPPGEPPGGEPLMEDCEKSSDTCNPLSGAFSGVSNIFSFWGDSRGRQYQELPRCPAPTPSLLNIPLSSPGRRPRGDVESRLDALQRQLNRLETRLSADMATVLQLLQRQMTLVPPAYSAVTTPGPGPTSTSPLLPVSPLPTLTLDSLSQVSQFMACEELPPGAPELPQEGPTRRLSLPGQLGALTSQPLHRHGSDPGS
Text: (§3) Based on the available in vitro and in vivo data, except for the potential to cause a negative chronotropic effect and some mild increase in blood pressure, there is no indication that KRP203 would cause arrhythmia or QT prolongation in man.

[18] = molecular target: S1P5 (Homo sapiens, UniProt Q9H228); test: S1P receptor agonism on S1P5; format: biochemical
Chain of S1P5 (Q9H228 whole entry): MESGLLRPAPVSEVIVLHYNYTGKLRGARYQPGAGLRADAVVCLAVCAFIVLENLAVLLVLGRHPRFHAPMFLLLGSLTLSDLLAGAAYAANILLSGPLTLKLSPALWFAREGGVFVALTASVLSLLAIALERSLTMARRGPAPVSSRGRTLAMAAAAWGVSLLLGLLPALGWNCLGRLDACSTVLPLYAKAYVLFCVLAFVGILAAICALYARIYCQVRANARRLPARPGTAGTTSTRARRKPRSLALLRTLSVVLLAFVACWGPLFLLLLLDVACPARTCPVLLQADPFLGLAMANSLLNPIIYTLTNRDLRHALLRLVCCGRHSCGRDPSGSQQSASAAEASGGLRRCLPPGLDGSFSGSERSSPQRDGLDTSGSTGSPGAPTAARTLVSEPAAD
Text: as §2

[19] = test system: bacterial mutation; test: In vitro genotoxicity: bacterial mutation; format: cell-based
[20] = test system: guinea pig papillary muscle preparation; test: APD in guinea pig papillary muscle preparation; conditions: concentrations of 3 μM
Text: as §3

[21] = test system: GPCRs, ion channels, transporters, nuclear receptors and enzymes; test: Off-target binding assays; conditions: compared to estimated free plasma concentration at 3 mg/day
Text: Thus it is unlikely that secondary pharmacology effects should arise due to non-specific receptor activation at therapeutic doses.

[22] = molecular target: S1P4 (Homo sapiens, UniProt O95977); test: S1P receptor agonism on S1P4; format: biochemical
Chain of S1P4 (O95977 whole entry): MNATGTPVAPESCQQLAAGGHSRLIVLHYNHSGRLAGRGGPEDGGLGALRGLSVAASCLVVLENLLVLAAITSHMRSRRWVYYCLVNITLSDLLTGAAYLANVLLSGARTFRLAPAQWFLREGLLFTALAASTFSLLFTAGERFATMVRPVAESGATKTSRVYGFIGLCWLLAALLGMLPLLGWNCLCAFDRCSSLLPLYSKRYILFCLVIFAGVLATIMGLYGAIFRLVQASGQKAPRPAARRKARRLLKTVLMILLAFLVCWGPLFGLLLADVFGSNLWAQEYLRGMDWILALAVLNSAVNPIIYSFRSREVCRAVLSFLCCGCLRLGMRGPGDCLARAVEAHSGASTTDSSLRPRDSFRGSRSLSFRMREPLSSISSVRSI
Text: as §2

[23] = In vitro metabolite profile in human hepatocytes; format: in vitro ADME

Molecule: CCc1cc(/C(C)=N/OCc2ccc(C3CCCCC3)c(C(F)(F)F)c2)ccc1CN1CC(C(=O)O)C1 [BAF312]
- Recovery of absolute lymphocyte counts to 80% of normal counts [1]: 7 days

Molecule: CCCCCCCCc1ccc(CCC(N)(CO)CO)cc1 [FTY720]
- Recovery of absolute lymphocyte counts to 80% of normal counts [1]: 8 days
- S1P receptor selectivity [2]: poor selectivity for S1PR1 versus S1PR3-5
- effect on acute GVHD [3]: ameliorate acute GVHD

Molecule: NC(CO)(CO)CCc1ccc(Sc2cccc(OCc3ccccc3)c2)cc1Cl [[14C]KRP203]
- radioactivity Tmax [4]: 9.3 h
- volume of distribution Vss ([5]; intravenous administration, rat): 8.0 L/kg
- radioactivity Tmax ([5]; oral administration, male rats): 7 h
- total radioactivity in brain relative to plasma ([6]; 14-day multiple oral dose 0.5 mg/kg/day): accumulated more in brain relative to plasma and eliminated much slower
- radioactivity in CNS tissues (cerebrum, cerebellum and medulla oblongata) versus plasma ([6]; until 24 h post-dose after single administration): lower than in plasma
- fraction unbound [7]: < 0.01

Molecule: KRP203-phosphate
- internalization of the S1P1 [8]: long-lasting and complete internalization
- KRP203-phosphate/KRP203 ratio (based on AUC0-24 h) [9]: 1.4-6.6
- accumulation after repeated dosing (4 and 13 weeks) [9]: no evidence of accumulation
- proportionality between exposure and dose ([9]; single and multiple doses (4 and 13 weeks)): trend for an under proportionality at all dose levels
- effect on cytochromes P450 enzymes and transporters [10]: lack of effect
- in vivo ratio of phosphorylated KRP203 to KRP203 in plasma [11]: up to 45
- agonist activity [12]: potent agonist
- no significant induction of CYP3A4 via the human PXR receptor up to concentration [13]: ≤ 50 µM
- KRP203-phosphate/KRP203 ratio (based on AUC0-24 h) [14]: 10.9-19.1
- proportionality between exposure and dose ([14]; single and multiple administrations): apparent proportionality between exposure and dose
- agonist activity [15]: potent but partial agonist
- genotoxic potential [16]: no evidence for a genotoxic potential
- effects on hERG channels [17]: did not show significant effects
- agonist activity [18]: potent but partial agonist
- genotoxic potential [19]: no evidence for a genotoxic potential
- APD prolongation [20]: No APD prolongation
- safety margins in off-target binding assays [21]: large safety margins
- agonist activity [22]: potent agonist
- metabolite abundance in human hepatocytes [23]: among the more prominent metabolites
